Experimental data: ChEMBL document CHEMBL5352387, “Synthesis and biological evaluation of tyrosine derivatives as peripheral 5HT2A receptor antagonists for nonalcoholic fatty liver disease” (Eur J Med Chem, 2022)
The source made the active and inactive calls. No cut-off for these calls is given here.

Legend:
[1] = target: T1, 5-hydroxytryptamine receptor 2A (Homo sapiens, UniProt P28223); assay: Inhibition of 5HT2A receptor (unknown origin) expressed in HEK293 cells at 1 uM by FLIPR Calcium 6 dye based assay relative to control; assay type: functional, cell-based
[2] = Drug concentration in brain of ICR mouse at 5 mg/kg, iv measured at 1 hr; assay type: ADME, organism-based; conditions: read-out: Ct
[3] = Drug concentration in plasma of ICR mouse at 5 mg/kg, iv measured at 1 hr; assay type: ADME, organism-based
[4] = target: hERG (Homo sapiens, UniProt Q12809); assay: Inhibition of hERG at 10 uM relative to control; assay type: toxicity
[5] = target: 5-hydroxytryptamine receptor 7 (Homo sapiens) (UniProt P34969); assay: Inhibition of 5HT7 receptor (unknown origin) at 1 uM relative to control
[6] = system: Mus musculus; assay: Reduction in hepatic steatosis in high fat diet-induced NAFLD C57BL6/J mouse model assessed as reduction in adipose tissue inflammation at 1 mg/kg, ip measured after 8 weeks by H and E staining based analysis; assay type: functional, organism-based
[7] = target: T2, 5-hydroxytryptamine receptor 1A (Homo sapiens) (UniProt P08908); assay: Inhibition of 5HT1A receptor (unknown origin) at 1 uM relative to control
T2 sequence (whole entry): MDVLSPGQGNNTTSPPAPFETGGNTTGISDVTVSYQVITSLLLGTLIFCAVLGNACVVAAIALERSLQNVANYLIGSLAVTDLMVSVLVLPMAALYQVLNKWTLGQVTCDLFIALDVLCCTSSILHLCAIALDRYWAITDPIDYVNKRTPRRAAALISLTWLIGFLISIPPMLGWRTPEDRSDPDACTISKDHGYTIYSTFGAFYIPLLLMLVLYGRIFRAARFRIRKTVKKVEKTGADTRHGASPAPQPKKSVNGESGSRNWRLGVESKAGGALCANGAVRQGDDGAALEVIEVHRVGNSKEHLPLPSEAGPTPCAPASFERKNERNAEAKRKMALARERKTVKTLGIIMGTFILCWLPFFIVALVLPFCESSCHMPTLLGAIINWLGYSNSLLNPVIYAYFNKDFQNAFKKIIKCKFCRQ

[8] = system: Mus musculus; assay: Reduction in hepatic steatosis in high fat diet-induced NAFLD C57BL6/J mouse model assessed as decrease in size of lipid droplet in brown adipose tissue at 1 mg/kg, ip measured after 8 weeks by H and E staining based analysis; assay type: functional, organism-based
[9] = Stability in mouse liver microsomes assessed as parent compound remaining measured after 30 mins; assay type: ADME, Microsome; conditions: read-out: Stability
[10] = target: T3, Cytochrome P450 1A2 (Homo sapiens, UniProt P05177); assay: Inhibition of CYP1A2 (unknown origin) relative to control; assay type: ADME
T3 sequence (P05177 whole entry): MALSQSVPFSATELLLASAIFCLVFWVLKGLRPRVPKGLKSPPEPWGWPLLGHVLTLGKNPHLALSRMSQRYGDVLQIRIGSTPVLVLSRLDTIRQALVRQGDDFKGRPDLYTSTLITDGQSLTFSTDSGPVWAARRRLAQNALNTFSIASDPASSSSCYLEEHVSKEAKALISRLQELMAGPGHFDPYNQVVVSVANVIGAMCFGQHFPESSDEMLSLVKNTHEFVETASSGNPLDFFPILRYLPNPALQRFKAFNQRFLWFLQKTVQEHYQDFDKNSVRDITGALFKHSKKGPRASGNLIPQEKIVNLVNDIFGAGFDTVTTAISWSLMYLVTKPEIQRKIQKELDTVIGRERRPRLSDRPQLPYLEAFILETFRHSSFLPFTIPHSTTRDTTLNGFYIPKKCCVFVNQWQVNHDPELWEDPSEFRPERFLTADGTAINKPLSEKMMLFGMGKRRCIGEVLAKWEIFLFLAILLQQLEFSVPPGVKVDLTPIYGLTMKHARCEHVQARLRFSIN

[11] = system: Mus musculus; assay: Reduction in hepatic steatosis in high fat diet-induced NAFLD C57BL6/J mouse model assessed as increase in multilocular adipocytes at 1 mg/kg, ip measured after 8 weeks by H and E staining based analysis; assay type: functional, organism-based
[12] = system: Mus musculus; assay: Reduction in hepatic steatosis in high fat diet-induced NAFLD C57BL6/J mouse model assessed as decrease in size of adipocytes in epididymis white adipose tissue at 1 mg/kg, ip measured after 8 weeks by H and E staining based analysis; assay type: functional, organism-based
[13] = system: Mus musculus; assay: Reduction in hepatic steatosis in high fat diet-induced NAFLD C57BL6/J mouse model assessed as body weight gain at 1 mg/kg, ip measured after 8 weeks; assay type: functional, organism-based
[14] = target: T1, 5-hydroxytryptamine receptor 2A; assay: Inhibition of 5HT2A receptor (unknown origin) expressed in HEK293 cells by FLIPR Calcium 6 dye based assay; assay type: functional, cell-based
[15] = target: 5-hydroxytryptamine receptor 4 (Homo sapiens) (UniProt Q13639); assay: Inhibition of 5HT4E receptor (unknown origin) at 1 uM relative to control
[16] = system: Mus musculus; assay: Reduction in hepatic steatosis in high fat diet-induced NAFLD C57BL6/J mouse model assessed as reduction in serum ALT level at 1 mg/kg, ip measured after 8 weeks; assay type: functional, organism-based
[17] = system: Mus musculus; assay: Reduction in hepatic steatosis in high fat diet-induced NAFLD C57BL6/J mouse model assessed as reduction in hepatic triglyceride level at 1 mg/kg, ip measured after 8 weeks by colorimetric assay; assay type: functional, organism-based
[18] = target: 5-hydroxytryptamine receptor 6 (Homo sapiens) (UniProt P50406); assay: Inhibition of 5HT6 receptor (unknown origin) at 1 uM relative to control
[19] = system: Mus musculus; assay: Reduction in hepatic steatosis in high fat diet-induced NAFLD C57BL6/J mouse model assessed as increase in lean body mass at 1 mg/kg, ip measured after 8 weeks; assay type: functional, organism-based
[20] = system: Mus musculus; assay: Reduction in hepatic steatosis in high fat diet-induced NAFLD C57BL6/J mouse model assessed as reduction in serum cholesterol level at 1 mg/kg, ip measured after 8 weeks; assay type: functional, organism-based
[21] = target: T4, 5-hydroxytryptamine receptor 2C (Homo sapiens) (UniProt P28335); assay: Inhibition of 5HT2C receptor (unknown origin) at 1 uM relative to control
T4 sequence (whole entry): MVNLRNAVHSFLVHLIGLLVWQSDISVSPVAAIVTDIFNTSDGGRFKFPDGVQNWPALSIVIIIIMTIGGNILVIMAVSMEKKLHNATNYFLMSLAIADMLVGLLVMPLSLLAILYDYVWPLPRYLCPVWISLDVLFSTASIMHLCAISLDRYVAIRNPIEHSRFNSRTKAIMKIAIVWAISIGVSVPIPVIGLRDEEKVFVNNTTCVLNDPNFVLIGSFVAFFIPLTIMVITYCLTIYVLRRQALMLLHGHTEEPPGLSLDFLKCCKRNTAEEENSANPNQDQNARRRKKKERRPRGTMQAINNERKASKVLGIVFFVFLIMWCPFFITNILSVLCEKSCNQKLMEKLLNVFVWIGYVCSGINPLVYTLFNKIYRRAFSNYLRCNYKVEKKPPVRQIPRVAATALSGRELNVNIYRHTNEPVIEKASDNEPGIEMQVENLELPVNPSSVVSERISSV

[22] = target: Cytochrome P450 2C19 (Homo sapiens, UniProt P33261); assay: Inhibition of CYP2C19 (unknown origin) relative to control; assay type: ADME
[23] = target: Cytochrome P450 2C9 (Homo sapiens, UniProt P11712); assay: Inhibition of CYP2C9 (unknown origin) relative to control; assay type: ADME
[24] = Stability in rat liver microsomes assessed as parent compound remaining measured after 30 mins; assay type: ADME, Microsome; conditions: read-out: Stability
[25] = target: Cytochrome P450 2D6 (Homo sapiens, UniProt P10635); assay: Inhibition of CYP2D6 (unknown origin) relative to control; assay type: ADME
[26] = system: Mus musculus; assay: Reduction in hepatic steatosis in high fat diet-induced NAFLD C57BL6/J mouse model assessed as reduction in lobular inflammation at 1 mg/kg, ip measured after 8 weeks by H and E staining analysis; assay type: functional, organism-based
[27] = system: Mus musculus; assay: Reduction in hepatic steatosis in high fat diet-induced NAFLD C57BL6/J mouse model assessed as improved glucose tolerance at 1 mg/kg, ip measured after 8 weeks by glucometer analysis; assay type: functional, organism-based
[28] = target: Serotonin 3 (5-HT3) receptor (Homo sapiens) (UniProt P46098+A5X5Y0+O95264+Q70Z44+Q8WXA8); assay: Inhibition of 5HT3 receptor (unknown origin) at 1 uM relative to control; assay type: protein-complex assay
[29] = system: Mus musculus; assay: Reduction in hepatic steatosis in high fat diet-induced NAFLD C57BL6/J mouse model assessed as reduction in fat body mass at 1 mg/kg, ip measured after 8 weeks; assay type: functional, organism-based
[30] = system: Mus musculus; assay: Reduction in hepatic steatosis in high fat diet-induced NAFLD C57BL6/J mouse model assessed as reduction in serum AST level at 1 mg/kg, ip measured after 8 weeks; assay type: functional, organism-based
[31] = system: Mus musculus; assay: Reduction in hepatic steatosis in high fat diet-induced NAFLD C57BL6/J mouse model at 1 mg/kg, ip measured after 8 weeks; assay type: functional, organism-based
[32] = target: Cytochrome P450 3A4 (Homo sapiens, UniProt P08684); assay: Inhibition of CYP3A4 (unknown origin) relative to control; assay type: ADME
[33] = system: Mus musculus; assay: Reduction in hepatic steatosis in high fat diet-induced NAFLD C57BL6/J mouse model assessed as decrease in size of adipocytes in inguinal white adipose tissue at 1 mg/kg, ip measured after 8 weeks by H and E staining based analysis; assay type: functional, organism-based
[34] = target: 5-hydroxytryptamine receptor 5A (Homo sapiens) (UniProt P47898); assay: Inhibition of 5HT5A receptor (unknown origin) at 1 uM relative to control
[35] = Stability in human liver microsomes assessed as parent compound remaining measured after 30 mins; assay type: ADME, Microsome; conditions: read-out: Stability

T1 sequence (P28223 whole entry): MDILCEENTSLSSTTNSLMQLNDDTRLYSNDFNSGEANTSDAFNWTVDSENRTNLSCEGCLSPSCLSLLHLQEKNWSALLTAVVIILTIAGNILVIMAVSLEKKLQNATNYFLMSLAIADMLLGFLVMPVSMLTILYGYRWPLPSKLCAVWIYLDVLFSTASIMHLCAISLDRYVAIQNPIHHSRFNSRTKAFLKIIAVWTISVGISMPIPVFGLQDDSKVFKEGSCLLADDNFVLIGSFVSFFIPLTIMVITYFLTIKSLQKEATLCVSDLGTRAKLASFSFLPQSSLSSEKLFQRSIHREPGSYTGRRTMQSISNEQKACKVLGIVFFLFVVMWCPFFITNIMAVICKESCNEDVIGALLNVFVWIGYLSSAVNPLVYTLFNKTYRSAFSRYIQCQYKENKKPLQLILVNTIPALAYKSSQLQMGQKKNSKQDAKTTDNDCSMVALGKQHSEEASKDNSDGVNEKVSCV
Chain of 5-hydroxytryptamine receptor 6 (Homo sapiens) (P50406 whole entry): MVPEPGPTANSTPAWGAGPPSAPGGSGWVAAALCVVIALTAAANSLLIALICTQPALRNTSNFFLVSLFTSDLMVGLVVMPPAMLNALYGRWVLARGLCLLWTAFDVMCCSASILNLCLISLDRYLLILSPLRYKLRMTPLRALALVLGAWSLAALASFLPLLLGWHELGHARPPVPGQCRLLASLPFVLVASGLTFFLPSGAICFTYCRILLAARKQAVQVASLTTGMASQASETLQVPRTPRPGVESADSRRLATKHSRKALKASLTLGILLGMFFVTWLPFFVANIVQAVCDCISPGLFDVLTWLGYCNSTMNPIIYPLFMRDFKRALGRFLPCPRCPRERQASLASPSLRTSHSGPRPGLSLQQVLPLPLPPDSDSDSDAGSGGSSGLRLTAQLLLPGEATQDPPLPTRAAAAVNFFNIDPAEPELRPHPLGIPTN
Chain of Cytochrome P450 2C19 (P33261 whole entry): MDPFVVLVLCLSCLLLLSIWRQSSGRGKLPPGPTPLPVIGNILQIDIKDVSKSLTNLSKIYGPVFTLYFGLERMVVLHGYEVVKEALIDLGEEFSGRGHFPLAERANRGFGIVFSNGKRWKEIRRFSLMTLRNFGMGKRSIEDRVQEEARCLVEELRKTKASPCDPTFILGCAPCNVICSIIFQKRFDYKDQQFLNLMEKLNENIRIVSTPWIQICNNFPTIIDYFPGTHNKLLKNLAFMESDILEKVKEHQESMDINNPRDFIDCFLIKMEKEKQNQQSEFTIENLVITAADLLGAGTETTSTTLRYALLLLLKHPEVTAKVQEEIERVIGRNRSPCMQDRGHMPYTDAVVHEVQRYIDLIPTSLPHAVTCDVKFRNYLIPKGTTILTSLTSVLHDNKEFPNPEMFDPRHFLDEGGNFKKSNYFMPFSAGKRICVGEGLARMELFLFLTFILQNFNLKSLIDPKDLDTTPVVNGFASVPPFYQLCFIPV
Chain of Cytochrome P450 2D6 (P10635 whole entry): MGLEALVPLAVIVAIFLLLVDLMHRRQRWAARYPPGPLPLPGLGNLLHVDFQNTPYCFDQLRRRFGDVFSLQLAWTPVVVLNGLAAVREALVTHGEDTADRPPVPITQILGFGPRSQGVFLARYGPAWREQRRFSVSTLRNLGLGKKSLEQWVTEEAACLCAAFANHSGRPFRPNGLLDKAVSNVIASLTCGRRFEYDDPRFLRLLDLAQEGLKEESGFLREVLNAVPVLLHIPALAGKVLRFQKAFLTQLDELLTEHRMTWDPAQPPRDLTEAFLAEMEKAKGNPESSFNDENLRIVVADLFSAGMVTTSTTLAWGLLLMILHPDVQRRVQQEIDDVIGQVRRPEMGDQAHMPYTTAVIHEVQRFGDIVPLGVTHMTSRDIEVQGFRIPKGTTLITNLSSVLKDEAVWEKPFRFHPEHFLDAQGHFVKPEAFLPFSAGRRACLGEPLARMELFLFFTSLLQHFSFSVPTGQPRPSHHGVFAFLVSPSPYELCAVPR
Chain of 5-hydroxytryptamine receptor 5A (Homo sapiens) (P47898 whole entry): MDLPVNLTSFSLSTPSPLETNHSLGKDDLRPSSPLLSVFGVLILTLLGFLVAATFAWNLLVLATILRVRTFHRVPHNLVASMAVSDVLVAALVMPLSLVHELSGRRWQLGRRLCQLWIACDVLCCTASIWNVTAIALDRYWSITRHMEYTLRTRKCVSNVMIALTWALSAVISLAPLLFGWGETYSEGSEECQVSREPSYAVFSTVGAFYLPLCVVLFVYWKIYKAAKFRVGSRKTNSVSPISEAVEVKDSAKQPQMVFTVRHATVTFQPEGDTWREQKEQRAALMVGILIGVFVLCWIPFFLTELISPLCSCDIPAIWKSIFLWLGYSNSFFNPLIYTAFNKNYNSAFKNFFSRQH
Chain of Cytochrome P450 3A4 (P08684 whole entry): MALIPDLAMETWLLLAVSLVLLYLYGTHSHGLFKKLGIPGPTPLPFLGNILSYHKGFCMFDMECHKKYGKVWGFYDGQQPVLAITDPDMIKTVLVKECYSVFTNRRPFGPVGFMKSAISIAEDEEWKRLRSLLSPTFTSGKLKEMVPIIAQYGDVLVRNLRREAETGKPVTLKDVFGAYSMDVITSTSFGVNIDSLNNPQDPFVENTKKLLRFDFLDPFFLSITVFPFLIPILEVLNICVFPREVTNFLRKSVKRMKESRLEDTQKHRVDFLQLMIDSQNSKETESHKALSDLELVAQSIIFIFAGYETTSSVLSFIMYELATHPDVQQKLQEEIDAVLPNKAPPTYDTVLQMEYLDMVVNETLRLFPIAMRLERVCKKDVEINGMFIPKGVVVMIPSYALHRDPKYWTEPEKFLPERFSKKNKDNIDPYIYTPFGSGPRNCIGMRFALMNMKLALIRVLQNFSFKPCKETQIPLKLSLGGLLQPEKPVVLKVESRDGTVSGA
Chain of hERG (Q12809 whole entry): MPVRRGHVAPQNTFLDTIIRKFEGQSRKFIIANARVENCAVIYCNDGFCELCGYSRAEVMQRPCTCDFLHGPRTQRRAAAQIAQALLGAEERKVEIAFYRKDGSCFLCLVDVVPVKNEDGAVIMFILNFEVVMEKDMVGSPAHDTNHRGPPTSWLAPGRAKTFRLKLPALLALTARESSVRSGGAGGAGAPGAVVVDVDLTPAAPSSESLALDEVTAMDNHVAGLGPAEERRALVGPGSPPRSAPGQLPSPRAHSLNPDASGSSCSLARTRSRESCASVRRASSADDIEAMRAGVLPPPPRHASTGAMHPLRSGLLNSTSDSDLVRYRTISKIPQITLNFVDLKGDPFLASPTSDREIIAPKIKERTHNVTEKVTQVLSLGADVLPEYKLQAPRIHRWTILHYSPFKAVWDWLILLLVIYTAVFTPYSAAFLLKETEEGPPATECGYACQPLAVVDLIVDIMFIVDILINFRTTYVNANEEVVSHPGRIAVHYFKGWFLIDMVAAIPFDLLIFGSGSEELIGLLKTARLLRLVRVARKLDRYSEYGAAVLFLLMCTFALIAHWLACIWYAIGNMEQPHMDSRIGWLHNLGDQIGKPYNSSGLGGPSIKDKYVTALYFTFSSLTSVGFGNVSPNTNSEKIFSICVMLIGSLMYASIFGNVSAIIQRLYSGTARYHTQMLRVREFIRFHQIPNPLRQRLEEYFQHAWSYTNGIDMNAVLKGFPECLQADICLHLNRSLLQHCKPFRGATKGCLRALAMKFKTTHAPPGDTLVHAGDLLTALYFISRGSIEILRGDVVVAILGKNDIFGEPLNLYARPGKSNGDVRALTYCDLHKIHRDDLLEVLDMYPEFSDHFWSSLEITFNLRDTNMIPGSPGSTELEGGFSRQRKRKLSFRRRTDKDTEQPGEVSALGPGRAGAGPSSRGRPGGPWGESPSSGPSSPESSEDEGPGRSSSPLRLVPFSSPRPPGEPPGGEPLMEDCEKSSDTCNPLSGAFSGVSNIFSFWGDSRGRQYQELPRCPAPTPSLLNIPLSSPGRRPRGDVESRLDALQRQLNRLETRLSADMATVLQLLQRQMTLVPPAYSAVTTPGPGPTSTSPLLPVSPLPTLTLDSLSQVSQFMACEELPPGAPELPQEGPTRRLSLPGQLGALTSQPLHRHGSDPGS
Chain of Cytochrome P450 2C9 (P11712 whole entry): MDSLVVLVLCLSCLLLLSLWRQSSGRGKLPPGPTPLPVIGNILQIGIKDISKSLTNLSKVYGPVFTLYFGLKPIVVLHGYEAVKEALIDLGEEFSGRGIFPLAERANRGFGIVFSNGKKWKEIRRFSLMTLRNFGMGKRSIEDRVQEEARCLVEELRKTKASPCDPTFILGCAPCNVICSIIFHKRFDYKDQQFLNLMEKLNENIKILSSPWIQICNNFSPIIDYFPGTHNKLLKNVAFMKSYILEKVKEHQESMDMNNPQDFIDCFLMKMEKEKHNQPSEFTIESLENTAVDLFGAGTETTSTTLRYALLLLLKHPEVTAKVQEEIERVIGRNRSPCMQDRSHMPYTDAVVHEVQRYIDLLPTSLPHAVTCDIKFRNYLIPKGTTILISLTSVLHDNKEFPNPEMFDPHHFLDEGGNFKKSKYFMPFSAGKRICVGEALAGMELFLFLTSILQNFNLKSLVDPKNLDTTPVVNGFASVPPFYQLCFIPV
Chain of 5-hydroxytryptamine receptor 7 (Homo sapiens) (P34969 whole entry): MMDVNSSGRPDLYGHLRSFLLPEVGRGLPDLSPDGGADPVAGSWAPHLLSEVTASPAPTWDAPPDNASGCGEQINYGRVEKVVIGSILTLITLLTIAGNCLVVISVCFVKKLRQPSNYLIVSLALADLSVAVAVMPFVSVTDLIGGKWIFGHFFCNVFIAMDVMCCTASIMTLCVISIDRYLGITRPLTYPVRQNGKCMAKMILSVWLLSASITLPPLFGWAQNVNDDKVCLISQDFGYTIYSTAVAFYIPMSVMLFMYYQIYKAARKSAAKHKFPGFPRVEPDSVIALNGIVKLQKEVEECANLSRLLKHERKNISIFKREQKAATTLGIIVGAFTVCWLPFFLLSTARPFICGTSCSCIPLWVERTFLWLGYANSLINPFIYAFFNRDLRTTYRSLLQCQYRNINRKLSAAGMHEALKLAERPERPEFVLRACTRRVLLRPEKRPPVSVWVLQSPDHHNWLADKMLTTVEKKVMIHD

N[C@@H](Cc1ccc(OCCN2CCN(c3cccc(Cl)c3Cl)CC2)cc1)C(=O)O
inhibition [1]: 43.2%

Cl.Cl.N[C@@H](Cc1ccc(OCCN2CCN(c3nsc4ccccc34)CC2)cc1)C(=O)O
concentration at 1 h [2]: < 7.8 ng/mL | concentration at 1 h [3]: 165 ng/mL | inhibition [1]: 73.9%

N[C@@H](Cc1ccc(OCCN2CCC(C(=O)c3ccc(F)cc3)CC2)cc1)C(=O)O
inhibition [1]: 35.1%

Cl.Cl.N[C@@H](Cc1ccc(OCCCN2CCC(c3noc4cc(F)ccc34)CC2)cc1)C(=O)O
inhibition at 10 µM [4]: 30.9% | inhibition [5]: 24% | Activity [6]: Active | inhibition [7]: 68% | Activity [8]: Active | remaining at 0.5 h [9]: > 99% | inhibition (INH) [10]: 4.3% | Activity [11]: Active | Activity [12]: Active | Activity [13]: Active | concentration at 1 h [2]: < 7.8 ng/mL | IC50 [14]: 0.17 nM | inhibition [15]: 50.4% | Activity [16]: Active | Activity [17]: Active | inhibition [18]: 4% | Activity [19]: Active | Activity [20]: inactive | inhibition [21]: 98% | inhibition (INH) [22]: < 1% | inhibition (INH) [23]: 1.8% | remaining at 0.5 h [24]: 98.5% | inhibition (INH) [25]: 31.9% | Activity [26]: Active | Activity [27]: Active | concentration at 1 h [3]: 901 ng/mL | inhibition [28]: 22% | Activity [29]: Active | inhibition [1]: 92% | Activity [30]: Active | Activity [31]: Active | inhibition (INH) [32]: < 1% | Activity [33]: Active | inhibition [34]: 16% | remaining at 0.5 h [35]: > 99%

N[C@H](Cc1ccc(OCCN2CCN(c3nsc4ccccc34)CC2)cc1)C(=O)O
inhibition [1]: 53.4%

Cl.Cl.N[C@@H](Cc1ccc(OCC(O)CN2CCC(c3noc4cc(F)ccc34)CC2)cc1)C(=O)O (stereo partly drawn)
concentration at 1 h [2]: < 7.8 ng/mL | IC50 [14]: 2.15 nM | concentration at 1 h [3]: 1230 ng/mL | inhibition [1]: 90.8%

O=C(O)CCc1ccc(OCCN2CCN(c3nsc4ccccc34)CC2)cc1
concentration at 1 h [2]: < 7.8 ng/mL | concentration at 1 h [3]: 114 ng/mL | inhibition [1]: 43.4%

O=C(O)c1ccc(OCCN2CCN(c3nsc4ccccc34)CC2)cc1
inhibition [1]: 33.3%

O=C(O)Cc1ccc(OCCN2CCN(c3nsc4ccccc34)CC2)cc1
inhibition [1]: 9.53%

N[C@@H](Cc1ccc(OCCN2CCC(c3noc4cc(F)ccc34)CC2)cc1)C(=O)O
inhibition [1]: 74.8%

N[C@@H](Cc1ccc(OCCCCN2CCC(c3noc4cc(F)ccc34)CC2)cc1)C(=O)O
IC50 [14]: 3.6 nM | inhibition [1]: 91.4%
